Measurements as given in patent US20190029637A1, “A WEARABLE SENSOR, AND METHOD, TO MONITOR ANTI-COAGULATION THERAPY” (The Regents of the University of California, priority 2016, published 2019).

Columns and labels:
[1] = Photoacoustic spectra of contaminated heparin in the presence of methylene blue; conditions: 5 wt. % contaminated heparin
From the text: In one exemplary implementation, the photoacoustic imaging system used for measurements is a Vevo 2100 commercial instrument (Visualsonics). The scanner is equipped with a 21 MHz-centered transducer (LZ250) and a Q-switched Nd:YAG laser. The laser uses an optical parameteric oscillator and second harmonic generator to generate a tunable laser between 680 and 970 nm with a 1 nm step size and a pulse of 4 to 6 ns at 20 Hz. The peak energy is 45±5 mJ at 20 Hz at the source. The full field-of-view is 14-23 mm wide. The acquisition rate is 5 frames per second. The samples were prepared in small tubing fixed in a self-developed phantom holder which was aligned at ˜10 mm under the transducer. The laser energy was calibrated and optimized using the build-in energy power meter and software before measurements. 100% laser energy was used with 21 MHz frequency and the gain was optimized from 10-40 dB to obtain 3D scans at 680-850 nm as well as photoacoustic spectra from 680 to 850 nm.
1×PBS solution was prepared via dissolving one PBS tablet into 200 mL deionized water. The 2 mM methylene blue was prepared fresh by dissolving reagent-grade powder in PBS followed by sonication for 30 minutes at 40 C and then filtering through 0.22 μm. The 0.4 mM methylene blue was prepared by dissolving 2 mM methylene blue with PBS. A batch of OSCS/heparin mixture that simulates OSCS contaminated heparin was prepared at the following steps: 100 μL of 50, 25, 5, 2.5, 0.5, 0.25 μg/mL OSCS, and PBS was added into 100 uL 1000 μg/mL heparin prepared in PBS solution, respectively. The working concentration of OSCS in the above solutions was 25, 12.5, 2.5, 1.25, 0.25, 0.125, 0.025, and 0 μg/mL OSCS, respectively, and the working concentration of heparin is 500 μg/mL. In other words, the heparin solution was contaminated by 5, 2.5, […], 0.05, 0.025, and 0%. The contrast signal of methylene blue/heparin mixture was optimized at the combination of 0.4 mM methylene blue and […]. […]
Data analysis were performed using the scanner's built-in software. […] The average and standard deviation were calculated. […]

Antithrombin = Antithrombin (Homo sapiens, UniProt P01008); conditions: cited from earlier work
Antithrombin, sequence (P01008 33-464): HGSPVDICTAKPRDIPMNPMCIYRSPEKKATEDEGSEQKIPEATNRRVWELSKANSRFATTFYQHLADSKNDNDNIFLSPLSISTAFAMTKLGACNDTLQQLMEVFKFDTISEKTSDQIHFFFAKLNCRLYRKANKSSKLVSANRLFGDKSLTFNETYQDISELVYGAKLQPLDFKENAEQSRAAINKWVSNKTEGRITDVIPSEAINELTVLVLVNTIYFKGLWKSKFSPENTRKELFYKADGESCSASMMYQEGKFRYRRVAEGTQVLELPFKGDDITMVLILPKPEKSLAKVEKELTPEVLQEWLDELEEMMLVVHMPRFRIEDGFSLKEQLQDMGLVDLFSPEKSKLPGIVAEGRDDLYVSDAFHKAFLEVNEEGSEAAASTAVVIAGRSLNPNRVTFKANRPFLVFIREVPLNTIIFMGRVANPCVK

[2] = Photoacoustic response of nanoparticle-bound methylene blue coating to heparin and protamine; conditions: 50 U/mL heparin-treated device, protamine 8 mg/mL
Experimental: The surface charge of these nanoparticle is −23 mV, which is too negative to allow association between the nanoparticle-bound dye and negatively charged heparin. Therefore, the charge of the particle was changed to produce a material that was both stable and responsive to heparin. To tune the nanoparticles, the same were treated with (3-mercaptopropyl) trimethoxysilane (MPTMS) to adjust the zeta potential to −15 mV (SSNP-SH). This material was used with agar gel to create a coating on a catheter tube.
More importantly, the methylene blue on these modified nanoparticles remain responsive to heparin with 51% more photoacoustic signal at 10 U/mL heparin than PBS for 1 h incubation. The signal enhancement was stable after constant imaging at 680 nm for 9 min (RSD<4%) This system was also reversible. When the 50 U/mL-treated device was reversed with protamine (8 mg/mL), the signal decreased by 42% versus no protamine treatment. The higher signal of the heparin-treated hybrid versus PBS-treated hybrid is likely due to interactions between methylene blue and heparin, which increases the photoacoustic signal and decreases diffusion of this complex and free methylene blue into solution.

Substance	715 nm peak amplified compared to pure heparin in methylene blue [1]	other results
chondroitin sulfate [CS]	476%	
heparin		increase of the activity of antithrombin (Antithrombin): 10^3 fold
dermatan sulfate [DS]	475%	
protamine sulfate		signal decrease versus no protamine treatment [2]: 42%
oversulfated chondroitin sulfate [OSCS]	400%	
